# Patent US20240252572A1, “ANTI-INFLAMMATORY AGENT FOR INTESTINAL CELLS OF DOMESTIC ANIMAL” (SDS BIOTECH K.K., priority 2021, published 2024)
# Tested on: BIE (bovine intestinal epithelial) cells
# Assay: Inflammatory cytokine gene expression (RT-PCR) in LPS-stimulated bovine intestinal epithelial cells
# Assay type: cell-based
# Conditions: CNSL 30 ppm, aspirin 10 ppm, single agents
# Method: To evaluate the effect of endotoxin stimulated inflammatory reaction in the intestine, CNSL, vitamin K1 (FUJIFILM Wako Pure Chemical Corporation), or a combination thereof was added to bovine intestinal epithelial cells, the cells were cultured, and cytokine gene expression analysis was performed. Aspirin was used as a positive control. • 1. Seeding of BIE Cells • BIE (bovine intestinal epithelial) cells were seeded in a 12-well plate (manufactured by COSTAR) at 3.0×10^4 cells/well, and cultured in a CO2 incubator. • 2. […] A culture supernatant was collected, the wells were then washed with the sterilized PBS, and adherent cells were solubilized with TRIZOL, and harvested (at 9:00 p.m. on Day 5 and at 9:00 a.m. on Day 6) (12 hours or 24 hours) The sample in which TRIZOL (manufactured by INVITROGEN) is dissolved is partially purified by phenol-chloroform extraction and ethanol precipitation, and then dissolved in 10 μL of RNase-free water, and the O.D. (absorbance) of the resultant is measured with NanoDrop (manufactured by Thermo Fisher Scientific K.K.). […]
smiles,measurement,value
"CC(=O)Oc1ccccc1C(=O)O [aspirin, acetylsalicylic acid]","action of the inflammation mediators, stimulated by endotoxin (LPS)",suppress
